Data published in US11427564B2, “Heteroaryl pyrimidine compound and pest control agent” (Nippon Soda Co., Ltd., priority 2017, dated 2022).

Experiments:
Aphis craccivora = test: Efficacy test against Aphis craccivora (spray on cowpea plants); format: in vivo; conditions: 125 ppm sprayed on cowpea plants infested with nymphs; 25° C., humidity 60%; 4 days after spraying
Procedure: The insecticidal rate was calculated by the following formula. Insecticidal rate (%)=(number of dead insects/number of tested insects)×100 Cowpea plants were raised in No. 3 pots, and nymphs of Aphis craccivora were inoculated on the primary leaves. The emulsion (1) was diluted with water so that the concentration of the compound of the present invention was 125 ppm, and the diluent was sprayed on the cowpea plants infested with nymphs of Aphis craccivora. The cowpea plants were placed in a thermostatic chamber with a temperature of 25° C. and a humidity of 60%. […] The test was repeated twice.

Plutella xylostella = test: Efficacy test against Plutella xylostella (cabbage leaf immersion); format: in vivo; conditions: 125 ppm, cabbage leaf immersed 30 seconds; second instar larvae; 25° C., humidity 60%; 3 days after insect release
Procedure: The insecticidal rate was calculated by the following formula. Insecticidal rate (%)=(number of dead insects/number of tested insects)×100 The emulsion (1) was diluted with water so that the concentration of the compound of the present invention was 125 ppm. A cabbage leaf was immersed in the diluent for 30 seconds. This cabbage leaf was placed in a petri dish. Five second instar larvae of Plutella xylostella were released therein. The petri dish was placed in a thermostatic chamber with a temperature of 25° C. and a humidity of 60%. […] The test was repeated twice.

| Compound | melting point | insecticidal rate (Aphis craccivora) | insecticidal rate (Plutella xylostella) |
| --- | --- | --- | --- |
| Br.CCS(=O)(=O)c1cnc(-c2ncccn2)nc1-c1ccc(O)cn1 | 234 to 239 °C | – | – |
| CCS(=O)(=O)c1cnc(-c2ncn(C)n2)nc1-c1ccc(C(F)(F)C(F)(F)C(F)(F)C(F)(F)F)nn1 | 182 to 185 °C | – | – |
| CCS(=O)(=O)c1cnc(N)nc1-c1ccc(C(F)(F)C(F)(F)C(F)(F)C(F)(F)F)nn1 | 186 to 188 °C | – | – |
| CCS(=O)(=O)c1cnc(NC(=O)C(F)(F)F)nc1-c1ccc(OCC(F)(F)C(F)(F)C(F)(F)F)cn1 [1-80] | – | ≥ 80% | ≥ 80% |

More lines, main results first:

| melting point | Compound | insecticidal rate (Aphis craccivora) | insecticidal rate (Plutella xylostella) |
| --- | --- | --- | --- |
| 209 to 210 °C | CCS(=O)(=O)c1cnc(-c2ncccn2)nc1-c1ccc(OCC(F)(F)F)nn1 [2-8] | – | – |
| 212 to 214 °C | CCS(=O)(=O)c1cnc(O)cc1-c1ccc(OCC(F)(F)C(F)(F)F)cn1 [2-11] | – | – |
